Data from the NIST ThermoML archive (doi:10.1021/je060139a).

How the values were obtained:
[1] = xn = mol fraction of the nth substance listed; settings: Wilhelmy plate method
[2] = refractive index (Na D-line) (dimensionless); xn = mol fraction of the nth substance listed; settings: 100.5 kPa, Liquid, Standard Abbe refractometry

CC(=O)OCc1ccccc1 [benzyl ethanoate] + CCO
Settings | refractive index, 288.15 K | refractive index, 298.18 K | refractive index, 308.15 K | refractive index, 318.15 K | surface tension liquid-gas, 288.15 K [mN/m] | surface tension liquid-gas, 298.18 K [mN/m] | surface tension liquid-gas, 308.15 K [mN/m] | surface tension liquid-gas, 318.15 K [mN/m]
[1], x1 = 0.05 | – | – | – | – | 24 | 23.2 | 22.3 | 21.3
[1], x1 = 0.1 | – | – | – | – | 24.8 | 23.9 | 23 | 22
[1], x1 = 0.15 | – | – | – | – | 25.5 | 24.57 | 23.63 | 22.6
[1], x1 = 0.2 | – | – | – | – | 26.1 | 25.18 | 24.23 | 23.2
[1], x1 = 0.25 | – | – | – | – | 26.7 | 25.77 | 24.83 | 23.8
[1], x1 = 0.3 | – | – | – | – | 27.3 | 26.36 | 25.43 | 24.4
[1], x1 = 0.35 | – | – | – | – | 28 | 27.02 | 26.07 | 25.03
[1], x1 = 0.4 | – | – | – | – | 28.7 | 27.69 | 26.72 | 25.66
[1], x1 = 0.45 | – | – | – | – | 29.4 | 28.37 | 27.38 | 26.3
[1], x1 = 0.5 | – | – | – | – | 30.1 | 29.02 | 28.03 | 26.93
[1], x1 = 0.55 | – | – | – | – | 30.8 | 29.69 | 28.67 | 27.56
[1], x1 = 0.6 | – | – | – | – | 31.5 | 30.36 | 29.3 | 28.17
[1], x1 = 0.65 | – | – | – | – | 32.2 | 31.02 | 29.94 | 28.78
[1], x1 = 0.7 | – | – | – | – | 32.9 | 31.68 | 30.58 | 29.41
[1], x1 = 0.75 | – | – | – | – | 33.62 | 32.37 | 31.24 | 30.06
[1], x1 = 0.8 | – | – | – | – | 34.4 | 33.08 | 31.93 | 30.75
[1], x1 = 0.85 | – | – | – | – | 35.2 | 33.92 | 32.8 | 31.6
[1], x1 = 0.9 | – | – | – | – | 36.1 | 34.8 | 33.7 | 32.45
[1], x1 = 0.95 | – | – | – | – | 36.9 | 35.6 | 34.5 | 33.3
[1], x1 = 1 | – | – | – | – | 37.7 | 36.4 | 35.3 | 34.1
[2], x1 = 0.05 | 1.38022 | 1.37602 | 1.37164 | 1.36738 | – | – | – | –
[2], x1 = 0.1 | 1.39462 | 1.39033 | 1.38588 | 1.38161 | – | – | – | –
[2], x1 = 0.15 | 1.40725 | 1.40288 | 1.39843 | 1.39409 | – | – | – | –
[2], x1 = 0.2 | 1.41836 | 1.41395 | 1.40945 | 1.40506 | – | – | – | –
[2], x1 = 0.25 | 1.42813 | 1.42372 | 1.41929 | 1.41487 | – | – | – | –
[2], x1 = 0.3 | 1.43696 | 1.43255 | 1.4281 | 1.42364 | – | – | – | –
[2], x1 = 0.35 | 1.44489 | 1.44048 | 1.43604 | 1.43155 | – | – | – | –
[2], x1 = 0.4 | 1.45211 | 1.44767 | 1.44323 | 1.4387 | – | – | – | –
[2], x1 = 0.45 | 1.45868 | 1.4542 | 1.44974 | 1.44517 | – | – | – | –
[2], x1 = 0.5 | 1.4647 | 1.46016 | 1.45571 | 1.4511 | – | – | – | –
[2], x1 = 0.55 | 1.4702 | 1.46565 | 1.46119 | 1.45653 | – | – | – | –
[2], x1 = 0.6 | 1.47521 | 1.47065 | 1.46619 | 1.46154 | – | – | – | –
[2], x1 = 0.65 | 1.47987 | 1.47531 | 1.47082 | 1.46613 | – | – | – | –
[2], x1 = 0.7 | 1.48418 | 1.47958 | 1.47508 | 1.47036 | – | – | – | –
[2], x1 = 0.75 | 1.48819 | 1.48358 | 1.47907 | 1.47434 | – | – | – | –
[2], x1 = 0.8 | 1.49191 | 1.48729 | 1.48279 | 1.47804 | – | – | – | –
[2], x1 = 0.85 | 1.49539 | 1.49076 | 1.48626 | 1.48148 | – | – | – | –
[2], x1 = 0.9 | 1.49871 | 1.49408 | 1.48959 | 1.48481 | – | – | – | –
[2], x1 = 0.95 | 1.5017 | 1.49709 | 1.49262 | 1.48783 | – | – | – | –
[2], x1 = 1 | 1.50439 | 1.49982 | 1.49539 | 1.49064 | – | – | – | –
